Patent US11753407B2, “Compounds for treating spinal muscular atrophy” (PTC Therapeutics, Inc., priority 2012, dated 2023)

Experiments:
[1] = tested on: Smn protein in SMA patient fibroblast cells (GM03813); assay: Smn protein assay in cultured cells (SMN HTRF); type: cell-based, human; details: SMA patient fibroblast cells, 48 hours; for EC1.5x for Smn protein expression: 7-point concentration curve, SMN HTRF, concentration producing 1.5 times Smn protein vs DMSO vehicle control; for maximum fold (Fold) increase of Smn protein: 7-point concentration data, fold relative to vehicle control
How it was run: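 Patient-derived SMA fibroblasts are plated, given compound for 48 h, then lysed in RIPA buffer with protease inhibitors. Lysate Smn is detected by an anti-SMN d2/kryptate HTRF pair incubated overnight. The normalized ΔF is divided by the vehicle ΔF to give fold change, from which EC1.5× and maximum fold are taken.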

[2] = tested on: SMN2 minigene mRNA (SMN2-A minigene) in HEK293H cells; assay: SMN2 minigene mRNA splicing RT-qPCR assay in cultured cells; type: cell-based, human; details: Homo sapiens, HEK293-H; concentration increasing full length SMN2 mRNA 1.5-fold relative to vehicle-treated cells; HEK293H cells with SMN2-A minigene, 24 hours, 7-point concentration data; read-out: EC1.5x for production of full length SMN2 mRNA
How it was run: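 Cells are seeded, left to attach 4-6 h, then dosed with test compound across seven concentrations and incubated 24 h. Lysates undergo RT-qPCR with primers/probe specific to the exon 7-containing minigene transcript, co-amplified with GAPDH. Fold change over vehicle is calculated, and EC1.5× marks the 1.5-fold point.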

| Structure (SMILES) | EC1.5x for Smn protein expression [1] | maximum fold (Fold) increase of Smn protein [1] | melting point | EC (1.5-fold increase) [2] |
| --- | --- | --- | --- | --- |
| CCCc1nc(C)cn2nc(-c3cc(=O)n4cc(N5CCN[C@H](C)C5)ccc4n3)cc12 [Compound 727, 7-[(3R)-3-methylpiperazin-1-yl]-2-(6-methyl-4-propylpyrazolo[1,5-a]pyrazin-2-yl)-4H-pyrido[1,2-a]pyrimidin-4-one] | **** (an EC1.5x≤0.3 μM is indicated by four stars (****)) | ***** (a fold increase >1.65 is indicated by five stars (*****)) | 195 to 197 °C | < 0.1 µM |
| CCCc1nc(C)cn2nc(-c3cc(=O)n4cc(N5CCN[C@@H](C)C5)ccc4n3)cc12 [Compound 728, 7-[(3S)-3-methylpiperazin-1-yl]-2-(6-methyl-4-propylpyrazolo[1,5-a]pyrazin-2-yl)-4H-pyrido[1,2-a]pyrimidin-4-one] | **** (an EC1.5x≤0.3 μM is indicated by four stars (****)) | ***** (a fold increase >1.65 is indicated by five stars (*****)) | 195 to 197 °C | 0.1 to 0.3 µM |
| CCCc1nc(C)cn2nc(-c3cc(=O)n4cc(N5C[C@@H](C)N[C@@H](C)C5)ccc4n3)cc12 [Compound 729, 7-[(3R,5S)-3,5-dimethylpiperazin-1-yl]-2-(6-methyl-4-propylpyrazolo[1,5-a]pyrazin-2-yl)-4H-pyrido[1,2-a]pyrimidin-4-one] | *** (an EC1.5× between >0.3 μM and ≤1 μM is indicated by three stars (***)) | ***** (a fold increase >1.65 is indicated by five stars (*****)) | 249 to 251 °C | 0.1 to 0.3 µM |
| Cc1cn2cc(-c3cc(=O)n4cc(N5CCN(C(C)C)[C@H](C)C5)ccc4n3)cc2c(C)n1 [Compound 730, 2-(1,3-dimethylpyrrolo[1,2-a]pyrazin-7-yl)-7-[(3R)-3-methyl-4-(propan-2-yl)piperazin-1-yl]-4H-pyrido[1,2-a]pyrimidin-4-one] | **** (an EC1.5x≤0.3 μM is indicated by four stars (****)) | ***** (a fold increase >1.65 is indicated by five stars (*****)) | 249 to 251 °C | < 0.1 µM |
| Cc1cn2cc(-c3cc(=O)n4cc(N5CCC(C)(N)CC5)ccc4n3)cc2c(C)n1 [Compound 731, 7-(4-amino-4-methylpiperidin-1-yl)-2-(1,3-dimethylpyrrolo[1,2-a]pyrazin-7-yl)-4H-pyrido[1,2-a]pyrimidin-4-one] | **** (an EC1.5x≤0.3 μM is indicated by four stars (****)) | ***** (a fold increase >1.65 is indicated by five stars (*****)) | 244 to 246 °C | < 0.1 µM |
| CC[C@H]1CN(c2cc(C)c3nc(-c4cc5c(C)nc(C)cn5n4)cc(=O)n3c2)CCN1 [Compound 732, 2-(4,6-dimethylpyrazolo[1,5-a]pyrazin-2-yl)-7-[(3S)-3-ethylpiperazin-1-yl]-9-methyl-4H-pyrido[1,2-a]pyrimidin-4-one] | *** (an EC1.5× between >0.3 μM and ≤1 μM is indicated by three stars (***)) | **** (a fold increase between >1.5 and ≤1.65 is indicated by four stars (****)) | 243 to 251 °C | 0.3 to 1 µM |
| Cc1cn2cc(-c3cc(=O)n4cc(N5CCNCC5)ccc4n3)cc(C(F)(F)F)c2n1 [Compound 733, 2-[2-methyl-8-(trifluoromethyl)imidazo[1,2-a]pyridin-6-yl]-7-(piperazin-1-yl)-4H-pyrido[1,2-a]pyrimidin-4-one] | **** (an EC1.5x≤0.3 μM is indicated by four stars (****)) | ***** (a fold increase >1.65 is indicated by five stars (*****)) | 325 to 328 °C | < 0.1 µM |
| Cc1cn2cc(-c3cc(=O)n4cc(N5CCN[C@H](C)C5)ccc4n3)cc(C(F)(F)F)c2n1 [Compound 734, 7-[(3R)-3-methylpiperazin-1-yl]-2-[2-methyl-8-(trifluoromethyl)imidazo[1,2-a]pyridin-6-yl]-4H-pyrido[1,2-a]pyrimidin-4-one] | **** (an EC1.5x≤0.3 μM is indicated by four stars (****)) | ***** (a fold increase >1.65 is indicated by five stars (*****)) | 303 to 306 °C | < 0.1 µM |
| Cc1cn2cc(-c3cc(=O)n4cc(N5CCN[C@@H](C)C5)ccc4n3)cc(C(F)(F)F)c2n1 [Compound 735, 7-[(3S)-3-methylpiperazin-1-yl]-2-[2-methyl-8-(trifluoromethyl)imidazo[1,2-a]pyridin-6-yl]-4H-pyrido[1,2-a]pyrimidin-4-one] | **** (an EC1.5x≤0.3 μM is indicated by four stars (****)) | **** (a fold increase between >1.5 and ≤1.65 is indicated by four stars (****)) | > 320 °C | < 0.1 µM |
| Cc1cn2cc(-c3cc(=O)n4cc(N5C[C@@H](C)N[C@@H](C)C5)ccc4n3)cc(C(F)(F)F)c2n1 [Compound 736, 7-[(3R,5S)-3,5-dimethylpiperazin-1-yl]-2-[2-methyl-8-(trifluoromethyl)imidazo[1,2-a]pyridin-6-yl]-4H-pyrido[1,2-a]pyrimidin-4-one] | **** (an EC1.5x≤0.3 μM is indicated by four stars (****)) | ***** (a fold increase >1.65 is indicated by five stars (*****)) | 293 to 296 °C | < 0.1 µM |
| CCc1nc(C)cn2nc(-c3cc(=O)n4cc(N5CCC(C)(N)CC5)ccc4n3)cc12 [Compound 737, 7-(4-amino-4-methylpiperidin-1-yl)-2-(4-ethyl-6-methylpyrazolo[1,5-a]pyrazin-2-yl)-4H-pyrido[1,2-a]pyrimidin-4-one] | **** (an EC1.5x≤0.3 μM is indicated by four stars (****)) | ***** (a fold increase >1.65 is indicated by five stars (*****)) | 216 to 218 °C | < 0.1 µM |
| Cc1cc(-c2cc(=O)n3cc(N4CCNCC4)ccc3n2)cc2cn(C)nc12 [Compound 738, 2-(2,7-dimethyl-2H-indazol-5-yl)-7-(piperazin-1-yl)-4H-pyrido[1,2-a]pyrimidin-4-one] | **** (an EC1.5x≤0.3 μM is indicated by four stars (****)) | ***** (a fold increase >1.65 is indicated by five stars (*****)) | 194 to 196 °C | < 0.1 µM |
| Cc1cc(-c2cc(=O)n3cc(C4CCNCC4)ccc3n2)cc2cn(C)nc12 [Compound 739, 2-(2,7-dimethyl-2H-indazol-5-yl)-7-(piperidin-4-yl)-4H-pyrido[1,2-a]pyrimidin-4-one] | **** (an EC1.5x≤0.3 μM is indicated by four stars (****)) | ***** (a fold increase >1.65 is indicated by five stars (*****)) | 228 to 230 °C | < 0.1 µM |
| Cc1cn2nc(-c3cc(=O)n4cc(C#CCN)ccc4n3)cc2c(C)n1 [Compound 740, 7-(3-aminoprop-1-yn-1-yl)-2-(4,6-dimethylpyrazolo[1,5-a]pyrazin-2-yl)-4H-pyrido[1,2-a]pyrimidin-4-one] | *** (an EC1.5× between >0.3 μM and ≤1 μM is indicated by three stars (***)) | ***** (a fold increase >1.65 is indicated by five stars (*****)) | 242 to 244 °C | 0.3 to 1 µM |
| Cc1cc(-c2cc(=O)n3cc(N4CCN[C@H](C)C4)ccc3n2)cc2cn(C)nc12 [Compound 741, 2-(2,7-dimethyl-2H-indazol-5-yl)-7-[(3R)-3-methylpiperazin-1-yl]-4H-pyrido[1,2-a]pyrimidin-4-one] | **** (an EC1.5x≤0.3 μM is indicated by four stars (****)) | ***** (a fold increase >1.65 is indicated by five stars (*****)) | 170 to 172 °C | < 0.1 µM |
| Cc1cn2cc(-c3cc(=O)n4cc(C5=CCNCC5)ccc4n3)cc2c(C)n1 [Compound 743, 2-(1,3-dimethylpyrrolo[1,2-a]pyrazin-7-yl)-7-(1,2,3,6-tetrahydropyridin-4-yl)-4H-pyrido[1,2-a]pyrimidin-4-one] | **** (an EC1.5x≤0.3 μM is indicated by four stars (****)) | ***** (a fold increase >1.65 is indicated by five stars (*****)) | 189 to 191 °C | < 0.1 µM |
| Cc1cn2nc(-c3cc(=O)n4cc(C5=CC(C)(C)NC(C)(C)C5)ccc4n3)cc2c(C)n1 [Compound 744, 2-(4,6-dimethylpyrazolo[1,5-a]pyrazin-2-yl)-7-(2,2,6,6-tetramethyl-1,2,3,6-tetrahydropyridin-4-yl)-4H-pyrido[1,2-a]pyrimidin-4-one] | *** (an EC1.5× between >0.3 μM and ≤1 μM is indicated by three stars (***)) | *** (a fold increase between >1.35 and ≤1.5 is indicated by three stars (***)) | 218 to 221 °C | < 0.1 µM |
